According to patent publication US10328104B2, “Methods for treating nuclear factor kappa-light-chain-enhancer of activated B cell (NF-κB) dysregulation in a host in need thereof using eggshell membrane compositions” (ESM TECHNOLOGIES, LLC, priority 2015, dated 2019):

Legend:
[1] = test system: human suffering from cardiovascular disease (hypertension); experiment: Resting blood pressure in a human suffering from cardiovascular disease taking NEM orally, case report; assay type: in vivo; settings: first subject; atenolol 100 mg/day, before NEM
Experimental: (§1) The following examples are illustrative of the efficacy of an orally administered eggshell membrane product (trade name NEM®) in treating a human suffering from cardiovascular disease. […] The subject was treating their hypertension with 100 mg/day of atenolol. […] The subject had also had four cardiac stents placed to treat atherosclerotic stenosis (narrowing) of various cardiac blood vessels. The subject consumed one 500 mg capsule per day of NEM® as prepared in Example 5 for about 12 months before noticing an effect on lipid panel results. The subject continued the NEM® regimen for an additional approximately 12 months (about 2 years total). Follow-up lipid panel results were: TC=138 mg/dL, LDL=80 mg/dL, HDL=41 mg/dL, and TG=84 mg/dL. […] The subject also found it necessary to reduce the atenolol dose from 100 mg/day to 25 mg/day.

[2] = test system: human suffering from cardiovascular disease (hyperlipidemia, hypertriglyceridemia); experiment: Lipid panel in humans suffering from cardiovascular disease taking NEM orally, case reports; assay type: in vivo; settings: second subject; treated with 10 mg/day atorvastatin, before NEM
Experimental: as §1
A second human with a recent history of cardiovascular disease (hyperlipidemia & hypertriglyceridemia only) was being treated with 10 mg/day of atorvastatin. Treated lipid panel results for this subject were: TC=207 mg/dL, LDL=114 mg/dL, HDL=47 mg/dL, and TG=247 mg/dL. […] The subject consumed one 500 mg capsule per day of NEM® as prepared in Example 5 for about 2 years. Follow-up lipid panel results were: TC=150 mg/dL, LDL=81 mg/dL, HDL=46 mg/dL, and TG=113 mg/dL.

| SMILES | resting diastolic blood pressure [1] | resting systolic blood pressure [1] | HDL [2] | LDL [2] | TG [2] | Total cholesterol (TC) [2] |
| --- | --- | --- | --- | --- | --- | --- |
| CC(C)NCC(O)COc1ccc(CC(N)=O)cc1 (stereo not drawn) [atenolol] | 84 mm Hg | 146 mm Hg |  |  |  |  |
| CC(C)c1c(C(=O)Nc2ccccc2)c(-c2ccccc2)c(-c2ccc(F)cc2)n1CC[C@@H](O)C[C@@H](O)CC(=O)O [atorvastatin] |  |  | 47 mg/dL | 114 mg/dL | 247 mg/dL | 207 mg/dL |
